These compounds were tested against BTK (Homo sapiens, UniProt Q06187) (assay: biochemical). Conditions: read-out: BTK inhibition (%).
Chain of BTK (Q06187 402-655 limits assumed): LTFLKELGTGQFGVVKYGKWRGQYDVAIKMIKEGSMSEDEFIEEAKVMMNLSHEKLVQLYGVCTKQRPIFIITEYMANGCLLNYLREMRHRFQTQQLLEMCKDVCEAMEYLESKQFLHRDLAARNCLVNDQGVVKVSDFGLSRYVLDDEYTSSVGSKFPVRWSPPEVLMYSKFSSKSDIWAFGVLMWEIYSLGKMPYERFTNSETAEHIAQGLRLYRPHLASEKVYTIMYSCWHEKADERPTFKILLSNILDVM
In the case of CC(C)C(Br)C(=O)NC(N)=O (stereo not drawn) [PCM-0216023], the inhibition at 10 µM is reported as 12.4%.
In the case of COc1ccc(N(C(=O)Oc2c(C)cccc2C)c2ccnc(Nc3ccc(N4CCN(C)CC4)cc3)n2)c(OC)c1 [PCM-0215345], the inhibition at 10 µM is reported as 24.1%.

Same assay, conditions: read-out: BTK inhibition (%), 0.75 uM BTK, […] probe 3l, 15 min preincubation
In the case of Cc1c[nH]c2nc(Nc3ccc(N4CCN(C)CC4)c(F)c3)nc(-c3cccc(CC#N)c3)c12 [PCM-0215633], the inhibition at 10 µM is reported as 92.4%.
For CCn1cc(C(=O)O)c(=O)c2cc(F)c(N3CCNCC3)nc21 [PCM-0086249], the inhibition at 10 µM was 4.7%.
Cn1cc(CNCC2CCN(c3ncc(C(=O)NO)cn3)CC2)c2ccccc21 [PCM-0095073] was tested, and the inhibition at 10 µM was -11.7%.
In the case of Cc1cc(C)nc(NC(=S)N2CCN(Cc3ccc(C(F)(F)F)cc3)CC2)c1 [PCM-0215867], the inhibition at 10 µM is reported as -17%.
Compound CCOC(=O)C=P(c1ccccc1)(c1ccccc1)c1ccccc1 [PCM-0216183] has an inhibition at 10 µM of -14.7%.
Cc1cc(C)cc(C(=O)NOCCCCCC(=O)NO)c1 [PCM-0215409] showed an inhibition at 10 µM of 9.3%.
Compound O=C(O)c1ccc2c3c1cccc3c(=O)n1c3ccccc3nc21 [PCM-0215754] has an inhibition at 10 µM of 13.8%.
In the case of Cc1cc(/C(O)=C2\C(=O)C(=O)N(CCCN3CCOCC3)C2c2ccncc2)ccc1OCc1ccccc1 (stereo not drawn) [PCM-0215180], the inhibition at 10 µM is reported as 0%.
With COc1ccc(-c2cc(=O)c3c(OC)c(OC)c(OC)c(OC)c3o2)cc1 [PCM-0086738] the inhibition at 10 µM was -26.9%.
With Cc1ccccc1-n1c(Cn2ncc3c(N)ncnc32)nc2cccc(C)c2c1=O [PCM-0095248] the inhibition at 10 µM was 4.1%.
With CN(C)C(=O)C(CCN1CCC(O)(c2ccc(Cl)cc2)CC1)(c1ccccc1)c1ccccc1 [PCM-0065584] the inhibition at 10 µM was 18.7%.
For O=C1NC(=O)/C(=C/c2cccc(C(F)(F)F)c2)S1 [PCM-0095598], the inhibition at 10 µM was 4.8%.
Cc1cc(O)c(-c2ccc([C@@H](C)CN)cc2)c2c1[nH]c(=O)c1sccc12 [PCM-0215772] gave an inhibition at 10 µM of 70.3%.
Cc1ccccc1N1CCN(CCc2nnc3n2CCCC3)CC1 [PCM-0216139] was tested, and the inhibition at 10 µM was 3.9%.
With Cc1[nH]c(/C=C2\C(=O)Nc3ccc(S(=O)(=O)Cc4c(Cl)cccc4Cl)cc32)c(C)c1C(=O)N1CCC[C@@H]1CN1CCCC1 [PCM-0095018] the inhibition at 10 µM was 35.2%.
Cc1ccc(CN(CC(O)COc2cccc3[nH]ccc23)C(C)(C)C)cc1 (stereo not drawn) [PCM-0216011] gave an inhibition at 10 µM of 6.9%.
Work on COc1ccc2c(c1)[C@]1(C[C@H]1c1ccc3c(/C=C/c4ccc(CN5C[C@@H](C)O[C@@H](C)C5)cc4)n[nH]c3c1)C(=O)N2 [PCM-0215815] yielded an inhibition at 10 µM of 86.9%.
With CC(=O)N[C@H]1[C@H]([C@H](O)[C@H](O)CO)OC(C(=O)O)=C[C@@H]1N=C(N)N [PCM-0095451] the inhibition at 10 µM was -4.3%.
In the case of CCCc1cc(C(N)=S)ccn1 [PCM-0086237], the inhibition at 10 µM is reported as -11.7%.
For Cc1cnc(-c2ccccc2C(C)C)nc1NCc1ccc(-n2ccnn2)cc1 [PCM-0095782], the inhibition at 10 µM was 3.9%.
For COc1cccc(OC)c1C(=O)OCc1cc(O)ccc1O[C@@H]1O[C@H](CO)[C@@H](O)[C@H](O)[C@H]1O [PCM-0216173], the inhibition at 10 µM was 0%.
In the case of O=C(CCc1ccc(O)cc1)c1c(O)cc(O[C@@H]2O[C@H](CO)[C@@H](O)[C@H](O)[C@H]2O)cc1O [PCM-0216363], the inhibition at 10 µM is reported as 17.8%.
In the case of CC(C)=CCC/C(C)=C/CC/C(C)=C/CC/C=C(\C)CC/C=C(\C)CCC=C(C)C [PCM-0216030], the inhibition at 10 µM is reported as -9.7%.
C[C@H]1CC[C@@]2(OC1)O[C@H]1C[C@H]3[C@@H]4CC[C@@H]5C[C@@H](O[C@@H]6O[C@H](CO)[C@H](O)[C@H](O)[C@H]6O[C@@H]6O[C@H](CO)[C@@H](O)[C@H](O)[C@H]6O)CC[C@]5(C)[C@H]4CC[C@]3(C)[C@H]1[C@@H]2C [PCM-0216400] showed an inhibition at 10 µM of 1.5%.
Work on CC(C(=O)Nc1cccc(N=Cc2c(O)ccc3ccccc23)c1)c1ccccc1 (stereo not drawn) [PCM-0215794] yielded an inhibition at 10 µM of 21.6%.
CS(=O)(=O)c1ccc([C@@H](O)[C@@H](CO)NC(=O)C(Cl)Cl)cc1 [PCM-0085804] showed an inhibition at 10 µM of -8.6%.
CCCC(=O)OCOC(=O)C1=C(C)NC(C)=C(C(=O)OC)C1c1cccc(Cl)c1Cl (stereo not drawn) [PCM-0095244] showed an inhibition at 10 µM of 18.7%.
For CC(C[N+](C)(C)C)OC(N)=O (stereo not drawn) [PCM-0064662], the inhibition at 10 µM was -7%.
Work on N=C1S/C(=C\c2ccc(-c3ccc4c(c3)C(=O)NC4=O)o2)C(=O)N1c1ccc(Br)cc1 [PCM-0215801] yielded an inhibition at 10 µM of 27%.
O=S(=O)(NC1CCCCC1)c1ccc2c(c1)C(=NO)c1cc(S(=O)(=O)NC3CCCCC3)ccc1-2 [PCM-0215862] gave an inhibition at 10 µM of 1.5%.
Compound Cc1cc(Nc2cc(Cl)nc(Oc3ccc([N+](=O)[O-])cc3)n2)n[nH]1 [PCM-0215861] has an inhibition at 10 µM of 12.4%.
Work on O=c1c(-c2ccc(O)cc2)coc2c([C@@H]3O[C@H](CO)[C@@H](O)[C@H](O)[C@H]3O)c(O)ccc12 [PCM-0094877] yielded an inhibition at 10 µM of -0.8%.
In the case of Cc1nc2cc(F)c(F)cc2n1-c1cncc(Nc2ccc(C(F)(F)F)cc2)n1 [PCM-0215953], the inhibition at 10 µM is reported as -6.2%.
CCOc1ccccc1N=Nc1c(C)[nH]n(-c2nc(-c3ccccc3)cs2)c1=O [PCM-0215207] showed an inhibition at 10 µM of -8.5%.
With O=C(/C=C/c1ccccc1)OCc1ccccc1 [PCM-0215962] the inhibition at 10 µM was 6.9%.
Work on CCc1ccc(-c2nc(CSCC(=O)NCCc3ccccc3)c(C)o2)cc1 [PCM-0215904] yielded an inhibition at 10 µM of -4.6%.
For COc1nc(OCc2cccc(-c3ccccc3)c2C)ccc1CNCCNC(C)=O [PCM-0215525], the inhibition at 10 µM was -51.7%.
Compound O=C[C@H](O)[C@@H](O)[C@H](O)[C@H](O)CO[C@H]1O[C@H](CO[C@H]2O[C@H](CO)[C@H](O)[C@H](O)[C@H]2O)[C@H](O)[C@H](O)[C@H]1O [PCM-0216378] has an inhibition at 10 µM of 3.9%.
Compound O=C(COc1cccc2c(=O)[nH]ccc12)c1ccccc1 [PCM-0095624] has an inhibition at 10 µM of 5.4%.
Work on CN1CCCN(C(=O)c2cccc(-c3ccc(/C=C4/C(=O)Nc5ccc(Cl)cc54)o3)c2)CC1 [PCM-0215321] yielded an inhibition at 10 µM of 26.9%.
Compound CC(C)=CCC[C@](C)(O[C@@H]1O[C@H](CO)[C@@H](O)[C@H](O)[C@H]1O)[C@H]1CC[C@]2(C)[C@@H]1[C@H](O)C[C@@H]1[C@@]3(C)CC[C@H](O)C(C)(C)[C@@H]3[C@@H](O)C[C@]12C [PCM-0216532] has an inhibition at 10 µM of -11.6%.
CC(C)[C@H](O)C(=O)N[C@@H](C)C(=O)N[C@@H]1C(=O)N(C)CCc2ccccc21 [PCM-0214637] was tested, and the inhibition at 10 µM was -3.1%.
For CC(=O)O[C@@H](C[C@@H](C)C1=C2C[C@H](O)[C@H]3[C@@]4(C)CCC(=O)C(C)(C)[C@@H]4CC[C@]3(C)[C@@]2(C)CC1)[C@H]1OC1(C)C [PCM-0216390], the inhibition at 10 µM was -4.6%.
Compound CC(C)(O[C@@H]1O[C@H](CO)[C@@H](O)[C@H](O)[C@H]1O)[C@H]1Cc2cc3ccc(=O)oc3cc2O1 [PCM-0216505] has an inhibition at 10 µM of -1.5%.
CC(C)(C#N)c1ccc(N2C(=O)OCc3cnc4ccc(-c5cnc6ccccc6c5)cc4c32)cc1 [PCM-0215242] gave an inhibition at 10 µM of -4.8%.
With O=C(Nc1ccc(O)cc1)c1ccccc1O [PCM-0214902] the inhibition at 10 µM was -10.9%.
Work on CC(C)=CCC[C@](C)(O[C@@H]1O[C@H](CO[C@@H]2O[C@H](CO)[C@@H](O)[C@H](O)[C@H]2O)[C@@H](O)[C@H](O)[C@H]1O)[C@H]1CC[C@]2(C)[C@@H]1[C@H](O)C[C@@H]1[C@@]3(C)CC[C@H](O[C@@H]4O[C@H](CO)[C@@H](O)[C@H](O)[C@H]4O[C@@H]4O[C@H](CO)[C@@H](O)[C@H](O)[C@H]4O)C(C)(C)[C@@H]3CC[C@]12C [PCM-0215030] yielded an inhibition at 10 µM of -0.7%.
COc1c(C)c2c(c(O)c1C/C=C(\C)CCC(=O)O)C(=O)OC2 [PCM-0090203] was tested, and the inhibition at 10 µM was 19.3%.
With COc1cc2c(Nc3ccc(NC(=O)c4ccccc4)cc3)ncnc2cc1OCCCN1CCOCC1 [PCM-0094881] the inhibition at 10 µM was 77.9%.
Compound CN(C)c1ccc(C(=O)NCCCCCCC(=O)NO)cc1 [PCM-0095347] has an inhibition at 10 µM of 4.7%.
Cc1nc2ccc(-n3ncc(C(=O)c4cc5ccccc5[nH]4)c3N)cc2[nH]1 [PCM-0215439] was tested, and the inhibition at 10 µM was 44.8%.
C[N+]12CCc3cc4c(cc3C1(O)Cc1ccc3c(c1C2)OCO3)OCO4 (stereo not drawn) [PCM-0216462] was tested, and the inhibition at 10 µM was -18.5%.
COC(=O)c1ccco1 [PCM-0216224] was tested, and the inhibition at 10 µM was -23.9%.
CCN1CCN(Cc2ccc(Nc3ncc(F)c(-c4cc(F)c5nc(C)n(C(C)C)c5c4)n3)nc2)CC1 [PCM-0095736] showed an inhibition at 10 µM of -12.4%.
Compound C[C@H](Cc1cc2c(c(C(N)=O)c1)N(CCCO)CC2)NCCOc1ccccc1OCC(F)(F)F [PCM-0214784] has an inhibition at 10 µM of -12.5%.
O=c1c(-c2ccc(O)cc2)coc2cc(O[C@@H]3O[C@H](CO)[C@@H](O)[C@H](O)[C@H]3O)ccc12 [PCM-0214779] showed an inhibition at 10 µM of 10.9%.
Compound CC[C@]12C=CCN3CC[C@@]4(c5ccc(OC)cc5N(C)[C@H]4[C@@](O)(C(=O)OC)[C@@H]1OC(C)=O)[C@@H]32 [PCM-0215165] has an inhibition at 10 µM of 6.2%.
Nc1ccccc1NC(=O)c1cnccn1 [PCM-0215479] gave an inhibition at 10 µM of -3.9%.
Nc1ncc(-c2ccnc(Nc3ccncc3)n2)c(CC2CC2)n1 [PCM-0215628] gave an inhibition at 10 µM of 8.3%.
For CN(CCO)CC(O)Cn1cnc2c1c(=O)n(C)c(=O)n2C (stereo not drawn) [PCM-0215123], the inhibition at 10 µM was 9.3%.
O=c1cc(-c2ccc(O)c(O)c2)oc2cc(O)c([C@@H]3O[C@H](CO)[C@@H](O)[C@H](O)[C@H]3O)c(O)c12 [PCM-0216497] was tested, and the inhibition at 10 µM was -4.6%.
COc1cc(OC)c(NC(=O)Nc2cc(C)on2)cc1Cl [PCM-0095491] showed an inhibition at 10 µM of 10.9%.
With CCOc1nc2cccc(C(=O)O)c2n1Cc1ccc(-c2ccccc2-c2noc(=O)[nH]2)cc1 [PCM-0095534] the inhibition at 10 µM was -3.1%.
N#CSc1cc(SC#N)c(N)nc1N [PCM-0095820] was tested, and the inhibition at 10 µM was 112%.
Cc1c(N)nc([C@H](CC(N)=O)NC[C@H](N)C(N)=O)nc1C(=O)N[C@H](C(=O)N[C@H](C)[C@@H](O)[C@H](C)C(=O)N[C@H](C(=O)NCCc1nc(-c2nc(C(=O)NCCC[S+](C)C)cs2)cs1)[C@@H](C)O)[C@@H](O[C@@H]1O[C@@H](CO)[C@@H](O)[C@H](O)[C@@H]1O[C@H]1O[C@H](CO)[C@@H](O)[C@H](OC(N)=O)[C@@H]1O)c1cnc[nH]1 [PCM-0215181] was tested, and the inhibition at 10 µM was 7.7%.
Compound C[C@H]1C[C@H]2[C@@H]3CCC4=CC(=O)C=C[C@]4(C)[C@@]3(F)[C@@H](O)C[C@]2(C)[C@@]1(O)C(=O)CO [PCM-0214629] has an inhibition at 10 µM of -6.2%.
Work on COc1cc2nc(N3CCCN(C)CC3)nc(NC3CCN(Cc4ccccc4)CC3)c2cc1OC [PCM-0064746] yielded an inhibition at 10 µM of -0.7%.
